# System: Utrophin A promoter linked to a luciferase reporter gene (H2K/mdx/Utro A reporter cell line)
# Assay: Luciferase reporter assay (murine H2K cells)
# Conditions: Mus musculus, H2K mdx
row,Compound,activity at 10 µM [%]
1,"Cc1ccc2nc(-c3ccc(C(F)(F)F)cc3)oc2c1 [Example 611, 6-Methyl-2-(4-(trifluoromethyl)phenyl)benzo[d]oxazole]",301 to 400
2,"O=[N+]([O-])c1ccc2[nH]c(-c3ccco3)nc2c1 [Example 508, 2-(furan-2-yl)-5-nitro-1H-benzo[d]imidazole]",< 200
3,"Cn1c(-c2ccc(Cl)cc2)nc2ccccc21 [Example 541, 2-(4-chlorophenyl)-1-methyl-1H-benzo[d]imidazole]",201 to 300
4,"CCC(=O)Nc1ccc2oc(-c3cccc(C)c3)nc2c1 [Example 668, N-(2-m-tolylbenzo[d]oxazol-5-yl)propionamide]",201 to 300
5,"Cc1ccc(S(=O)(=O)Nc2ccc3[nH]c(-c4ccco4)nc3c2)cc1 [Example 536, N-(2-(furan-2-yl)-1H-benzo[d]imidazol-5-yl)-4-methylbenzenesulfonamide]",< 200
6,"Cc1ccc2nc(-c3ccc(NC(=O)c4ccccc4C(=O)O)cc3)sc2c1 [Example 545, 2-(4-(6-methylbenzo[d]thiazol-2-yl)phenylcarbamoyl)benzoic acid]",< 200
7,"O=C(Nc1ccc(-c2nc3ccccc3[nH]2)cc1)C1CCCO1 (stereo not drawn) [Example 587, N-(4-(1H-Benzo[d]imidazol-2-yl)phenyl)tetrahydrofuran-2-carboxamide]",301 to 400
8,"Oc1ccccc1-c1nc2ccccc2s1 [Example 483, 2-(benzo[d]thiazol-2-yl)phenol]",< 200
9,"COc1ccc(CSc2nc3ccccc3[nH]2)cc1 [Example 640, 2-(4-methoxybenzylthio)-1H-benzo[d]imidazole]",301 to 400
10,"CSc1ccc(-c2nc3ccccc3[nH]2)cc1 [Example 543, 2-(4-(methylthio)phenyl)-1H-benzo[d]imidazole]",201 to 300
11,"CC(=O)Nc1ccc2[nH]c(-c3ccco3)nc2c1 [Example 534, N-(2-(furan-2-yl)-1H-benzo[d]imidazol-5-yl)acetamide]",< 200
12,"CCS(=O)(=O)c1ccc2ocnc2c1 [Example 573, 5-(ethylsulfonyl)benzo[d]oxazole]",< 200
13,"CC(=O)Nc1ccc(-c2nc3ccccc3o2)cc1 [Example 589, N-(4-(Benzo[d]oxazol-2-yl)phenyl)acetamide]",301 to 400
14,"COc1ccc(-c2nc3cc([N+](=O)[O-])ccc3o2)cc1OC [Example 537, 2-(3,4-dimethoxyphenyl)-5-nitrobenzo[d]oxazole]",< 200
15,"c1ccc(-c2ccc(-c3nc4ccccc4[nH]3)cc2)cc1 [Example 558, 2-(biphenyl-4-yl)-1H-benzo[d]imidazole]",< 200
16,"Clc1ccc(SCc2ccc(-c3nc4ccccc4[nH]3)cc2)cc1 [Example 460, 2-(4-((4-chlorophenylthio)methyl)phenyl)-1H-benzo[d]imidazole]",< 200
17,"Cc1ccc2nc(-c3ccc(NC(=O)CSc4nnc[nH]4)cc3)sc2c1 [Example 654, 2-(4H-1,2,4-triazol-3-ylthio)-N-(4-(6-methylbenzo[d]thiazol-2-yl)phenyl)acetamide]",301 to 400

row,Compound,activity at 10 µM [%]
1,"c1ccc2sc(-c3ccc4c(c3)OCO4)nc2c1 [Example 608, 2-(Benzo[d][1,3]dioxol-5-yl)benzo[d]thiazole]",> 401
2,"CNS(=O)(=O)c1ccc2nc(NC(=O)c3cccs3)sc2c1 [Example 687, N-(6-(N-methylsulfamoyl)benzo[d]thiazol-2-yl)thiophene-2-carboxamide]",201 to 300
3,"O=C(Nc1ccc(-c2nc3ccccc3[nH]2)cc1)c1ccc2c(c1)OCO2 [Example 540, N-(4-(1H-benzo[d]imidazol-2-yl)phenyl)benzo[d][1,3]dioxole-5-carboxamide]",< 200
4,"Cc1ccc2nc(-c3ccc(O)cc3)sc2c1 [Example 643, 4-(6-methylbenzo[d]thiazol-2-yl)phenol]",301 to 400
5,"COc1ccccc1-c1nc2ccccc2s1 [Example 522, 2-(2-methoxyphenyl)benzo[d]thiazole]",< 200
6,"Cc1ccc2[nH]c(-c3ccc(NC(=O)c4ccco4)cc3)nc2c1 [Example 580, N-(4-(5-Methyl-1H-benzo[d]imidazol-2-yl)phenyl)furan-2-carboxamide]",301 to 400
7,"Cn1c(-c2ccc([N+](=O)[O-])cc2)nc2ccccc21 [Example 472, 1-methyl-2-(4-nitrophenyl)-1H-benzo[d]imidazole]",< 200
8,"Nc1ccc(O)c(-c2nc3cc(N)ccc3s2)c1 [Example 550, 4-amino-2-(5-aminobenzo[d]thiazol-2-yl)phenol]",< 200
9,"Cc1nn(-c2nc3ccccc3[nH]2)c(N)c1-c1ccccc1 [Example 659, 1-(1H-benzo[d]imidazol-2-yl)-3-methyl-4-phenyl-1H-pyrazol-5-amine]",301 to 400
10,"Cc1ccc2nc(-c3cccc(NC(=O)c4ccco4)c3)[nH]c2c1 [Example 538, N-(3-(6-methyl-1H-benzo[d]imidazol-2-yl)phenyl)furan-2-carboxamide]",< 200
11,"Cc1ccnc(Nc2nc3ccccc3o2)n1 [Example 682, N-(4-methylpyrimidin-2-yl)benzo[d]oxazol-2-amine]",201 to 300
12,"Cc1c(N)cccc1-c1nc2cc(Cl)ccc2o1 [Example 566, 3-(5-chlorobenzo[d]oxazol-2-yl)-2-methylaniline]",< 200
13,"Cc1ccccc1C(=O)Nc1nc2ccccc2[nH]1 [Example 648, N-(1H-benzo[d]imidazol-2-yl)-2-methylbenzamide]",301 to 400
14,"COc1ccc(-c2nc3cc(N)ccc3o2)cc1OC [Example 515, 2-(3,4-dimethoxyphenyl)benzo[d]oxazol-5-amine]",201 to 300
15,"COc1ccc(-c2nc3ccccc3o2)cc1N [Example 619, 5-(benzo[d]oxazol-2-yl)-2-methoxyaniline]",> 401
16,"Cc1cccc(-c2nc3cc([N+](=O)[O-])ccc3o2)c1 [Example 533, 5-nitro-2-m-tolylbenzo[d]oxazole]",201 to 300
17,"CCC(C)C(=O)Nc1ccc(-c2nc3ccccc3[nH]2)cc1 (stereo not drawn) [Example 631, N-(4-(1H-benzo[d]imidazol-2-yl)phenyl)-2-methylbutanamide]",> 401

# Same assay, conditions: Table 1; luciferase level relative to control; final concentration of 10 μM
row,Compound,Activity
1,"Clc1ccc(-c2nc3cc4c(cc3o2)OCO4)cc1Cl [Example 361, 2-(3,4-chlorophenyl)-5,6-methylenedioxybenzoxazole]",+ (Up to 200% relative to control)

# Same assay, conditions: Table 2; luciferase level relative to control; final concentration of 10 μM
row,Compound,Activity
1,"O=C(c1ccccc1)c1ccc2nc(-c3ccccc3)[nH]c2c1 [Example 581, Phenyl (2-phenyl-1H-benzo[d]imidazol-6-yl)methanone]",+ (Up to 200% relative to control)
